# Experimental data: the supplement of paper PMC6045584
# ± gives the standard deviation of the averaged measurements.
# Compound: COc1cccc2c1C(=O)c1c(O)c3c(c(O)c1C2=O)C[C@@](O)(C(=O)CO)C[C@@H]3O[C@H]1C[C@H](N)[C@H](O)[C@H](C)O1 [DOXORUBICIN]
# Test: surviving fraction relative to DMSO-only wells; higher = less growth inhibition
# Details: 5 nM; exposure time: 5 days
# Procedure, shortened: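 Tumour cell lines in log phase were plated in 384-well plates at 250–500 cells per well, then, after 24 hours, exposed continuously for five days to inhibitors at 0.5, 1, 5, 10, 50, 100, 500 and 1000 nM. Viability came from CellTiter-Glo luminescence, and surviving fraction is that signal normalised to the median of DMSO-only wells. Plates were read after 10 minutes at room temperature, and each line, screened three times, was kept only when replicate Pearson r was >0.7 and median Z' was >0.3.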
row,Test System,surviving fraction
1,SCC36 HEADNECK,0.903 ± 0.001
2,OS25HAL BONE,0.97033 ± 0.00058
3,HCC1806 BREAST,0.75 ± 0.068
4,HU09 BONE,0.861 ± 0.13
5,SG43 HEADNECK,0.802 ± 0.076
6,U2OS BONE,0.86 ± 0.018
7,HOSMNG BONE,0.983 ± 0.083
8,CASKI CERVIX,0.221 ± 0.044
9,SUM44 BREAST,0.987 ± 0.044
10,MDAMB231 BREAST,0.946 ± 0.024
11,CAL51 BREAST,0.872 ± 0.029
12,MDAMB436 BREAST,0.822 ± 0.12
13,HSSYII SYNOVIAL,0.381 ± 0.02
14,RDES SOFT TISSUE,1.04 ± 0.05
15,MDAMB157 BREAST,0.498 ± 0.058
16,CHLA90 AUTONOMIC GANGLIA,0.866 ± 0.053
17,CADOES1 SOFT TISSUE,0.926 ± 0.078
18,SG31 HEADNECK,0.818 ± 0.035
19,SCC47 HEADNECK,1.09 ± 0.09
20,S68 BREAST,0.693 ± 0.16
21,SNU475 LIVER,0.982 ± 0.018

row,Test System,surviving fraction
1,22RV1 PROSTATE,0.618 ± 0.055
2,SG32 HEADNECK,0.828 ± 0.14
3,SCC003 HEADNECK,1.02 ± 0.1
4,JURKAT HAEMATOPOIETIC AND LYMPHOID TISSUE,0.61 ± 0.035
5,HT1080 SOFT TISSUE,0.553 ± 0.0044
6,CAL120 BREAST,0.902 ± 0.024
7,MCF7 BREAST,0.859 ± 0.053
8,MFM223 BREAST,0.975 ± 0.069
9,LNCAP PROSTATE,0.483 ± 0.075
10,PCI30 HEADNECK,0.92 ± 0.13
11,OSHN BONE,1.05 ± 0.031
12,SG28 HEADNECK,0.976 ± 0.081
13,HOS BONE,0.686 ± 0.0056
14,HUO3N1 BONE,0.953 ± 0.052
15,BT20 BREAST,0.823 ± 0.034
16,SJSA1 BONE,0.927 ± 0.012
17,JIMT1 BREAST,0.994 ± 0.04
18,HCC78 LUNG,0.63 ± 0.1
19,NY BONE,0.981 ± 0.015
20,NOS1 BONE,0.982 ± 0.1

# Same assay, conditions: 10 nM; exposure time: 5 days
row,Test System,surviving fraction
1,SCC36 HEADNECK,0.795 ± 0.087
2,OS25HAL BONE,0.965 ± 0.0076
3,HCC1806 BREAST,0.369 ± 0.039
4,HU09 BONE,0.539 ± 0.1
5,SG43 HEADNECK,0.675 ± 0.16
6,U2OS BONE,0.72 ± 0.05
7,HOSMNG BONE,0.98 ± 0.07
8,CASKI CERVIX,0.292 ± 0.049
9,SUM44 BREAST,0.895 ± 0.022
10,MDAMB231 BREAST,0.817 ± 0.026
11,CAL51 BREAST,0.62 ± 0.055
12,MDAMB436 BREAST,0.783 ± 0.026
13,HSSYII SYNOVIAL,0.157 ± 0.015
14,RDES SOFT TISSUE,1.25 ± 0.14
15,MDAMB157 BREAST,0.213 ± 0.02
16,CHLA90 AUTONOMIC GANGLIA,0.763 ± 0.041
17,CADOES1 SOFT TISSUE,0.812 ± 0.12
18,SG31 HEADNECK,0.717 ± 0.11
19,SCC47 HEADNECK,0.966 ± 0.051
20,S68 BREAST,0.424 ± 0.016
21,SNU475 LIVER,0.958 ± 0.059

row,Test System,surviving fraction
1,22RV1 PROSTATE,0.416 ± 0.047
2,SG32 HEADNECK,0.563 ± 0.099
3,SCC003 HEADNECK,0.855 ± 0.098
4,JURKAT HAEMATOPOIETIC AND LYMPHOID TISSUE,0.129 ± 0.004
5,HT1080 SOFT TISSUE,0.333 ± 0.037
6,CAL120 BREAST,0.822 ± 0.065
7,MCF7 BREAST,0.7804 ± 0.0075
8,MFM223 BREAST,0.702 ± 0.12
9,LNCAP PROSTATE,0.33 ± 0.029
10,PCI30 HEADNECK,0.637 ± 0.061
11,OSHN BONE,1.03 ± 0.028
12,SG28 HEADNECK,1.03 ± 0.011
13,HOS BONE,0.352 ± 0.1
14,HUO3N1 BONE,0.857 ± 0.049
15,BT20 BREAST,0.469 ± 0.07
16,SJSA1 BONE,0.636 ± 0.052
17,JIMT1 BREAST,0.901 ± 0.036
18,HCC78 LUNG,0.538 ± 0.083
19,NY BONE,0.876 ± 0.058
20,NOS1 BONE,0.643 ± 0.074
